From article PMC4476799, “Englerin A Agonizes the TRPC4/C5 Cation Channels to Inhibit Tumor Cell Line Proliferation” (PLoS ONE, 2015)

Key:
TRPC4 = molecular target: T1, TRPC4 (Homo sapiens, UniProt Q9UBN4); test: Electrophysiology (QPatch-HT automated patch clamp, voltage ramp); format: cell-based; settings: 10 μM ML204 + 5 μM englerin A; Dox-induced TRPC4
T1 construct: host or cells: Flp-In T-REx-293 (called HEK293T with Dox-inducible TRPC4)
T1 sequence (Q9UBN4 1-977): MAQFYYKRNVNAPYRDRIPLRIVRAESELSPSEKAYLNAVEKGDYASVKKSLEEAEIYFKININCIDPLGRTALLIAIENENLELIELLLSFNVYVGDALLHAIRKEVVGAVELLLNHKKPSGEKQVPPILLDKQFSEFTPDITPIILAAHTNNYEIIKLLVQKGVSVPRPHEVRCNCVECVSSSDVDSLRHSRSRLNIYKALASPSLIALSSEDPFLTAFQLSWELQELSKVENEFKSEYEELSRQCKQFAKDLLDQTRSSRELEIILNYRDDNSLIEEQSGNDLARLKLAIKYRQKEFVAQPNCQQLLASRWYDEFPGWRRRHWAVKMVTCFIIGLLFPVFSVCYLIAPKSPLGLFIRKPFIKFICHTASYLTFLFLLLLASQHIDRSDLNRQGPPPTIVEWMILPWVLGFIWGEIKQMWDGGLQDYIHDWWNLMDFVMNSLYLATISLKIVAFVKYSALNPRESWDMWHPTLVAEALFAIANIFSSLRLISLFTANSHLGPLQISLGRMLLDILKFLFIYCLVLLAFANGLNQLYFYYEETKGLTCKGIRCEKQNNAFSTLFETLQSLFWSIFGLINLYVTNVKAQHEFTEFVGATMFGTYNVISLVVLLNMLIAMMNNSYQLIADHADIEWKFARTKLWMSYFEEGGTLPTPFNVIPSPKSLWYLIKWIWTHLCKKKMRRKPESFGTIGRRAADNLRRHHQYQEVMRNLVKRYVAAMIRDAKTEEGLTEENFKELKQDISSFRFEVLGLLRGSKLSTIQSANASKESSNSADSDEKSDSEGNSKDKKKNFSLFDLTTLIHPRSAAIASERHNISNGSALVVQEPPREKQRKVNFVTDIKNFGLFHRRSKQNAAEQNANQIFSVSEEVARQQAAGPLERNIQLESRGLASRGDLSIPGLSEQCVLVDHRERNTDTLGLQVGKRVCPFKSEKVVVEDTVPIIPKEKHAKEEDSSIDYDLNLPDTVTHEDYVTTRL
Experimental: TRPC4 currents were recorded from HEK293T cells with Dox-inducible TRPC4 on the QPatch-HT automated patch clamp system at room temperature (21–24°C) (Biolin Scientific, Stockholm, Sweden). The internal solution contained (in mM): 150 Cs-aspartate, 2 MgCl2, 0.36 CaCl2, 1 EGTA, 4 MgATP, 0.3 NaGTP and 10 HEPES, pH = 7.20 with CsOH (calculated free [Ca^2+] = 100 nM using WebMaxChelator http://www.stanford.edu/~cpatton/maxc.html, assuming an ionic strength of 0.16). The standard external solution contained (in mM): 150 NaCl, 4 KCl, 2 CaCl2, 1 MgCl2, 10 HEPES and 10 D-glucose (pH = 7.40) with NaOH. Currents were elicited by a voltage ramp protocol consisting of a 50 ms step to −100 mV, followed by a 200 ms ramp to +100 mV and 10 ms at +100 mV. Voltage ramps were applied every 10 s from a holding potential of 0 mV. Results were expressed as means ± S.E.M.

A-673 cells = format: cell-based
Experimental: Cell viability was measured 48 hours later using Cell Titer-Glo.

effect on englerin A induced inward and outward currents (TRPC4): inhibited
Compound: Cc1cc(N2CCCCC2)nc2ccccc12 [ML204]
doses of ML204 alone at which A-673 cell growth is impaired (A-673 cells): higher than 50 μM
rescue of growth inhibition by englerin A (A-673 cells; 50 μM ML204 with 50 nM englerin A, A-673 cells): partially rescued
